Measured values reported in a melting point compilation (Tetko et al.; mined from patent text by program, amines drawn as free bases though some values may be those of a salt).

| melting point [°C] | SMILES |
| --- | --- |
| 149 | CC(C)CCNC(=O)c1ccccc1-c1ccccc1CNS(=O)(=O)c1ccc(F)cc1 |
| 105 to 110 | COc1nc(C(=O)O)c(C(=O)NC(C)(C)C)s1 |
| 254 to 256 | COc1cc2cn[nH]c(=O)c2cc1OC |
| 203 to 205 | CCOCCOc1ccc(-c2ccc3c(c2)C=C(C(=O)Nc2ccc(CN(C)C4CCOCC4)cc2)CCS3(=O)=O)cc1Cl |
| 165 | COCCCNC(=O)c1ccc(-c2cc(-c3c(-c4cccc(C)n4)nc4ccccn34)ccn2)cc1 |
| 197 to 200 | C=CCN1C(=O)COc2cc(F)c(-n3c(=O)cc(CC)[nH]c3=O)cc21 |
| 129 to 130 | CCOC(=O)c1ccc(-c2nc(COc3ccc(COc4nn(-c5ccccc5)cc4/C=C/P(=O)(OCC)OCC)cc3OC)c(C)o2)o1 |
| 120 to 121 | CC(C)c1nccc2c(CO)cccc12 |
| 67 to 68 | CCOC(=O)COc1cc2cc(CC)sc2c(Cl)c1Cl |
| 112 | N#CC(Cl)Cc1ccc([N+](=O)[O-])cc1 (stereo unspecified) |
| 87.5 to 90.4 | COC(=O)COc1ccc(NC(=O)CCCCCO)cc1 |
| 135 to 136 | CCCCCCS(=O)(=O)c1ccc(S(=O)(=O)CCCCCC)nc1 |
| 104 to 106 | COc1cccc(C2(c3cccc(OC)c3)CC2C=CC(=O)NC(C)CCCc2ccncc2)c1 (single isomer, unassigned) |
| 71 to 72 | CC(C)Nc1cccnc1N1CCN(C(=O)c2ccc(C(=O)N(CCO)c3ccccc3)cc2)CC1 |
| 130 to 132 | CCOC(=O)c1nc(C2CC2)nc(N)c1C |
| 85 to 87 | Cc1n[nH]c(C)c1Oc1cc(Cl)cc(Cl)c1 |
| 185 to 190 | COC(=O)Cc1c(C)n(O)c(=O)c2ccccc12 |
| 141 to 142 | Clc1cc2c(cc1Cl)CCC(N1CCCC1)=C2 |
| 86 to 88 | O=C(Nc1cccc(F)c1)NC1CCN(S(=O)(=O)c2cccc(C(F)(F)F)c2)CC1 |
| 165 to 170 | COP(C)(=O)C(O)[C@H](CC1CCCCC1)NC(=O)[C@H](CC(C)C)NC(=O)CCc1ccccc1 (stereo partly specified) |
| 41 to 42 | Cc1cc(C(C)(C)CCl)c(Cl)nn1 |
| 160 | CC(C)(C)OC(=O)NCCn1c(=S)[nH][nH]c(=O)c1=O |
| 117 to 119 | CCOC(=O)c1sc(N2CCN(Cc3ccc(Cl)cc3)C2=O)nc1C |
| 202 to 205 | CCCN=C(N)Nc1ccnc(C(CCC)C(=N)N)n1 (stereo unspecified) |
| 212 to 213 | COc1cc2ncnc(Nc3ccc(F)c(Cl)c3)c2cc1OCCN1CC(=O)O[C@@H](C)C1 |

| melting point [°C] | SMILES |
| --- | --- |
| 120 to 123 | Cc1noc(C)c1S(=O)(=O)n1nnc2cc3c(cc21)OC(F)(F)O3 |
| 115 to 117 | CCCCNCc1cn(CCC(=O)NC(C)(C)c2ccc(Cl)cc2)cn1 |
| 140 to 141 | CCN(CC1(C(F)(F)F)c2cc(Cl)ccc2Nc2ncccc21)C(C)C (stereo unspecified) |
| 164 to 165 | CC1(C)NC(=O)N(c2ccc(I)c(C(F)(F)F)c2)C1=O |
| 163 to 165 | O=C(O)c1cc(Cl)c(Oc2ccc(O)cc2)c(Cl)c1 |
| 209 | CC1(c2cc(-c3nc4ccc(OCc5ccccc5)cc4[nH]3)ccc2OCc2ccccc2)CCCCC1 |
| 116 to 119 | COC(=O)[C@H](CN1CCC(=C2c3ccccc3C=Cc3ccccc32)CC1)NC(=O)OCc1ccccc1 |
| 116 to 117 | CCOC(=NC(=O)c1ccc(Br)cc1)N1Cc2ccccc2-c2ccccc2C1 |
| 273 to 275 | Cc1cc(C(=O)O)nn1CC(=O)Nc1ccccc1 |
| 195 to 196 | Cc1nnc(-c2ccc3occ(-c4ccc(C(=O)N5CCCC5)c(F)c4)c3c2)o1 |
| 180 to 183 | NC(=NO)c1ccc(-c2ccc(N)cc2)o1 |
| 97 to 99 | COc1cccc(-c2cc(C)cc3c2OC(CN)C3)c1OC (stereo unspecified) |
| 80 to 81 | COc1c(C)c(C)cc(C)c1C(O)(c1ccccc1)C(C)C (stereo unspecified) |
| 198 | CC(C)(Oc1ccc(CC(=O)Nc2ccc(F)cc2)cc1)C(=O)O |
| 202 to 204 | CCN(CC)CCNc1ccc(NCCN(CC)CC)c2c1C(=O)c1c(O)ccc(O)c1C2=O |
| 162 | Cc1cccc(-c2n[nH]cc2-c2ccc(F)c(-c3ncc(C(C)(C)O)cn3)c2)n1 |
| 116 to 118 | CCCC(CCC)n1c(CC)nc2c1C(=O)N(C)C(CC)N2c1ccc(Cl)cc1Cl (stereo unspecified) |
| 157 to 158 | O=C1NCC=NN1c1ccc(C(CCl)c2ccc(Cl)cc2)c(C(F)(F)F)c1 (stereo unspecified) |
| 77.5 to 78.5 | CCCC/C(=C\C=C\C(=O)O)c1cccc(OC)c1 |
| 136 | CC(Oc1ccc(N(C)c2cc3ccc(Cl)cc3c(Cl)n2)cc1)C(=O)O (stereo unspecified) |
| 178 to 179 | O=C1CCCC2=C1OC(CC(=O)c1ccccc1)(c1ccccc1)C=C2c1ccccc1 (stereo unspecified) |
| 197 to 201 | O=C(O)Cc1ccc(OCc2cc(Cl)ccc2C(=O)O)cc1 |
| 134 to 136 | CC1(C)CCC(C)(C)c2cc(-c3cc(-c4ccc(C(=O)O)c(O)c4)ccc3-c3ccccc3)ccc21 |
| 213 to 215 | CS(=O)(=O)Nc1ccc2c(c1)C(=O)CC1(CCN(CCc3ccc(Cl)nc3)CC1)O2 |
| 245 to 251 | COc1ccc(CN=Nc2c(O)c(O)c(N=NCc3ccc(OC)cc3)c3ccccc23)cc1 |

| melting point [°C] | SMILES |
| --- | --- |
| 250 | CC(=O)NNc1nc(O)nc(-c2ccc(Cl)cc2)n1 |
| 114 to 116 | CC(=O)Nc1cc(Br)sc1Br |
| 91 to 93 | CC1(C)Oc2ccc([N+](=O)[O-])cc2C2OC21 (stereo unspecified) |
| 90 to 91 | C/C(=C\c1ccc(OCc2nc(-c3ccc(C(F)(F)F)cc3)oc2C)cc1)Cn1oc(=O)[nH]c1=O |
| 82 to 84 | COc1ccc(CCOCC(=O)O)cc1 |
| 69 to 71 | CCOC(=O)CC(C#N)(CC(=O)OCC)c1ccc(Cl)c(Cl)c1 |
| 170 to 171 | COc1ccc(-c2nc(S(=O)c3ccncc3)[nH]c2-c2ccc(OC)cc2)cc1 (stereo unspecified) |
| 62 to 72 | O=C(c1cc2ccnc(Cl)c2[nH]1)N1CCSCC1 |
| 126 | COc1ccc(OC)c2c1CC(O)CC2O (stereo unspecified) |
| 88 to 90 | C#CCn1ccc(C(=O)OC)c1C=NO |
| 228 to 232 | COC(=O)c1cc(-c2ccc(Cl)cc2)[nH]c1Cl |
| 230 to 233 | Cn1ccnc1C(=O)c1[nH]c2ccc(Cl)cc2c1CC(=O)O |
| 157 to 160 | O=C(O)CCCc1cc2nc(Cl)ccc2n1S(=O)(=O)c1cccc(-c2cncs2)c1 |
| 205 to 206 | COc1cc2c(cc1OC(C)C)-c1c(-c3cccs3)c3c(n1CC2)C(=O)N(C(C)C)CCN(C(=O)OC(C)(C)C)C3 |
| 125 to 127 | c1ccc(-c2nc3ncccc3o2)cc1 |
| 174 | CC(C)(C)OC(=O)[C@H]1CC[C@@H](c2ccccn2)N1C(=O)CNC(=O)Nc1cccc(C(=O)O)c1 (racemic) |
| 177 to 179 | CC1=NSc2c(F)c(F)c(F)c(F)c2N1Cc1ccc(-c2ccccc2C(=O)OC(C)(C)C)cc1 |
| 118 | Cc1nc(N)sc1S(=O)(=O)N(C)CCO |
| > 400 | CC(C)OP(=O)(OC(C)C)c1nc(N)nc(N)n1 |
| 136 to 138 | CC(C)(C)OC(=O)C[C@H](NC(=O)CNC(=O)CCc1ccc(C(=N)N)cc1)C(=O)NC1(C(=O)O)CCCC1 |
| 120 to 130 | COCn1c(-c2nc3c(OC)ccc(N4CCOCC4)c3s2)nc2ccc(C3CCNC3)nc21 (stereo unspecified) |
| 133 to 136 | O=CN1CCC(C(=O)N2CCN3C(=O)OC(c4ccccc4)(c4ccccc4)C3C2)CC1 (stereo unspecified) |
| 98 to 100 | Nn1c(C(F)(F)F)ccc(-c2ccc(Cl)cc2Cl)c1=O |
| 124 | O=C(O)c1ccc(OCCCCO)cc1 |
| 179 to 180 | CCCc1c2nc(C(=O)OC)cc(Br)c2cc2c(=O)cc(C(=O)OC)oc12 |

| melting point [°C] | SMILES |
| --- | --- |
| 81.5 | Cc1ccccc1C=C(C#N)C=O |
| 220 to 223 | Cn1cc(CS(C)(=O)=O)c(=O)c2sccc21 |
| 188 to 190 | Cc1c(NC(=O)c2ccc(-c3ccc(F)cc3)cc2)ccc2cc(CN3CCCCC3)cnc12 |
| 76 to 77 | CC(=O)c1ccc(C2=CC3CCCC3C2=O)cc1 (stereo unspecified) |
| 124 to 125 | CCC(O)(Cn1cncn1)C(C)(C)Cc1ccc(Cl)cc1 (stereo unspecified) |
| 219 | COc1cc(CCC2(C)OCc3c2cnc(C)c3O)cc(OC)c1OC (stereo unspecified) |
| 186 to 190 | CCN(CC)[C@@H]1CCC[C@H]1Nc1ccnc2cc(Cl)ccc12 (racemic) |
| 155 to 157 | CS(=O)(=O)c1ccc(N)c(C#N)c1 |
| 208 to 209 | COc1ccc(-c2c(Cl)c(CN3C(=O)CSC3=O)nc3sc4c(c23)CCSC4)cc1 |
| 214 to 215 | COc1c(C#N)cc(-c2c3ccccc3cc3sc4ccccc4c23)cc1C#N |
| 51 to 52 | CC(C)c1cc(O)cc(C(C)C)c1 |
| 233 to 235 | O=C(Cn1c(=O)[nH]c2ccccc21)c1c(-c2ccccc2)nc2ccccn12 |
| 100 | Cc1cc(-n2ccnc2)c2cccc(OCc3c(Cl)ccc(S(=O)(=O)N4CCC[C@H]4C(=O)NCC4CCN(Cc5ccccn5)CC4)c3Cl)c2n1 |
| 173 to 175 | O=C(NCc1ccccc1)c1ccnc(-n2cnn(Cc3ccc(F)cc3)c2=O)c1 |
| 265 to 266 | CCOC(=O)c1c(S)nc2cc(OC)c(OC)cc2c1-c1ccc(OC)c(OC)c1 |
| 160 | Cc1cc(-c2cc(C(F)(F)F)n3ncc(I)c3n2)ccc1C(F)(F)F |
| 305 to 308 | O=c1[nH]c2ncc(-c3ccc4[nH]ccc4c3)nc2n1CC1CCOCC1 |
| 93 | CNc1cc(Cl)cc(NCCOC)c1[N+](=O)[O-] |
| 141 to 144 | COC(C)c1cc(N2C(=O)C3=C(CCCC3)C2=O)c(F)cc1Cl (stereo unspecified) |
| 169 to 170 | CN(C)c1ccc(-c2cc(N)n[nH]2)cc1 |
| 161 to 163 | CC(C)Cn1c(CN)c(-c2ccccc2)c2cc(OCC(N)=O)ccc2c1=O |
| 250 | COc1ccc(-c2[nH]nc3c2C(=O)c2c(NC(=O)NNC(=O)c4cccc(N)c4)cccc2-3)cc1 |

| SMILES | melting point [°C] |
| --- | --- |
| N#CCCn1c(C(=O)OCc2ccccc2)cc2ccccc21 | 98 to 100 |
| O=C(c1ccc([N+](=O)[O-])[nH]1)C(Cl)(Cl)Cl | 160 to 163 |
| COc1ccccc1N1CCN(Cc2ccc(O)cc2)CC1 | 172 |
| O=[N+]([O-])c1cc(Cl)ccc1CBr | 42 to 43 |
